Experimental data: US20110136880A1, “Latrunculin-Based Macrolides and Their Uses” (priority 2009, published 2011)
Like-named read-outs stand apart in the source and are kept apart here.

Experiments:
[1] = molecular target: T1, pyrene-conjugated actin (Oryctolagus cuniculus, UniProt P68135); assay: Pyrene actin polymerization assay; assay type: biochemical; details: for inhibition at 0.1 µM: 100 nM, read-out: Actin polymerization inhibition (%) 100 nM; for inhibition at 0.1 µM / inhibition at 1 µM: compared to vehicle control (DMSO); for inhibition at 1 µM: read-out: Actin polymerization inhibition (%) 1 μM; for IC50: mean ± SEM, triplicate
T1 construct: purchased Cytoskeleton, Denver, Colo
Procedure: An actin polymerization kit was used to assess the direct actin-binding activity of each analogue at two concentrations: 100 nM and 1 μM. This kit is based on the enhanced fluorescence of pyrene-conjugated actin that occurs during polymerization. When pyrene-G-actin (monomer) forms pyrene-F-actin, fluorescence is enhanced. The enhanced fluorescence is used to follow polymerization over time. Table 2 lists activities as the percentage of actin polymerization inhibition, compared to the negative vehicle control (DMSO), along with calculated IC50.
Pyrene-Actin Polymerization Assays. Actin polymerization assays were performed in accordance with the manufacturer's instructions (Cytoskeleton, Denver, Colo.). Briefly, […] final concentration of monomeric actin (1:10 pyrene labeled) was incubated on ice for 10 min with one of various concentrations of one of the latrunculin derivatives. Samples were then equilibrated 10 min in an ELISA plate reader (BioTek, VT), after which polymerization was induced by adding KCl, MgCl2, and ATP. Compounds 1-14 were tested at 0.1, 0.5, 1.0, and 10 μM. The IC50 for each compound was calculated using GraphPad Prism 5.0.
Pyrene-actin polymerization assays. Actin polymerization inhibitory activity is assessed using the Cytoskeleton Actin Polymerization kit (Cytoskeleton, Denver, Colo.). Briefly, […] (final concentration) of monomeric actin (1:10 pyrene labeled) is incubated on ice for 10 min with one of various concentrations of the test latrunculin compound. Samples are equilibrated 10 min in an ELISA plate reader (BioTek, VT), after which polymerization is induced by adding KCl, MgCl2, and ATP. Compounds are tested at 0.1, 0.5, 1.0, and 10 μM. The IC50 for each compound is calculated using GraphPad Prism 5.0.

[2] = system: MCF7; assay: MTT proliferation assay, MCF7; assay type: cell-based, human; details: for IC50: Homo sapiens, MCF7, MTT, 72 h, mean ± SEM, read-out: IC50 (μM) MCF7
Text: (§1) The antiproliferative and anti-invasive activities of compounds 1-14 were quantified using MTT and cell invasion assay kits, respectively. Latrunculin A (compound 1) was used as a positive control in all biological assays, because it is known to be an actin polymerization inhibitor, with cytotoxic, antiproliferative, and anti-invasive activities. The 3-[4,5-dimethylthiazol-2-yl]-2,5-diphenyl tetrazolium bromide (MTT) assay selectively detects living cells in a quantitative, colorimetric fashion, based on a living cell's ability to reduce MTT to an insoluble, purple formazan dye. The MTT assay is routinely used to assess cytotoxicity and proliferation inhibition activities. The antiproliferative activities of compounds 1-14 were measured against two human mammary gland adenocarcinoma cell lines, MCF7 and MDA-MB-231, and against human prostate cancer cells PC-3 at five different doses (0.1, 0.5, 1, 10, and 50 μM). While many of the semisynthetic latrunculins had similar activity levels, some had greater activity than compound 1. […] Although the MDA-MB-231 cells were more resistant than MCF7 against most latrunculin derivatives tested, compound 14 had potent activity against both cell lines.
(§2) MTT Proliferation Assay. The growth of MCF7, MDA-MB-231, and PC-3 cancer cell lines was measured using an MTT kit (TACS™, TREVIGEN®, Inc.). Exponentially growing cells were plated in a 96-well plate at a density of 8×10^3 cells per well, and allowed to attach for 24 h. Complete growth medium was then replaced with 100 μL of RPMI serum-free medium containing various concentrations (50, 10, 1, 0.5, 0.1 μM) of the particular test compound. Culture continued at 37° C. under 5% CO2. After 72 h of culture, the cells were treated with MTT solution (10 μL/well) at 37° C. for 4 h. The color reaction was stopped by adding solubilization/stop solution (100 μL/well). Incubation continued at 37° C. continued to completely dissolve the formazan dye product. Absorbance of the samples was determined at 570 nm with an ELISA plate reader (BioTek, VT). The number of cells per well was calculated against a standard curve that had been prepared by plating various concentrations of cells, as determined by hemocytometer, at the start of each experiment. IC50 for each compound was calculated using a nonlinear regression curve fit of log concentration versus the number of cells/well, using GraphPad Prism 5.0 (GraphPad Software, La Jolla, Calif.).

[3] = system: microvessel density marker CD31 in endothelial colony forming cells (ECFCs); assay: Angiogenesis inhibition assay (CD31 in ECFCs); assay type: cell-based
Procedure: Effects on Angiogenesis. Angiogenesis inhibition assays were conducted using endothelial colony forming cells (ECFCs). The microvessel density marker CD31 was quantified using confocal laser scanning microscopy and immunohistochemistry.

[4] = system: MDA-MB-231; assay: MTT proliferation assay, MDA-MB-231; assay type: cell-based, human; details: for IC50: Homo sapiens, MDA-MB-231, MTT, 72 h, mean ± SEM, read-out: IC50 (μM) MDA-MB-231
Text: as §1, §2

[5] = system: PC-3; assay: MTT proliferation assay, PC-3; assay type: cell-based, human; details: for IC50: Homo sapiens, PC-3, MTT, 72 h, read-out: IC50 (μM) PC-3
Text: as §1, §2

| SMILES | inhibition at 0.1 µM [1] | inhibition at 1 µM [1] | IC50 [1] | IC50 [2] | inhibition at 2 µM [3] | inhibition at 10 µM [3] | IC50 ([3]; read-out: IC50 CD31 in ECFCs) | IC50 [4] | IC50 [5] | factor of greater activity than compound 1, MCF7 proliferation assay ([2]; assessed at 1 μM) | fold increase in activity against MCF7 versus compound 1 ([2]; relative to compound 1) | IC50 ([3]; read-out: antiangiogenic activity IC50 range) | factor of greater activity than compound 1, MDA-MB-231 proliferation assay ([4]; assessed at 1 μM) | fold increase in activity against PC-3 versus compound 1 ([5]; relative to compound 1) |
| --- | --- | --- | --- | --- | --- | --- | --- | --- | --- | --- | --- | --- | --- | --- |
| COc1ccc(CC(=O)N2C(=O)SC[C@H]2[C@@]2(OC)C[C@H]3C[C@@H](CC[C@H](C)/C=C\C=C\CC/C(C)=C\C(=O)O3)O2)cc1 [Compound 11, 17-O-Methyl-N-(7′-methoxyphenylacetyl)latrunculin A] | 0% | 13% | > 10000 nM | 15.4 ± 1.21 µM | 100% | 100% | < 0.043 µM | 26.2 ± 3.91 µM | 19.8 µM |  |  |  |  |  |
| C/C1=C/C(=O)O[C@@H]2C[C@@H](CC[C@H](C)/C=C\C=C\CC1)O[C@@](O)([C@@H]1CSC(=O)N1CO)C2 [Compound 14, N-Hydroxymethyllatrunculin A] | 35% | 90% | 210 ± 54 nM | 0.12 ± 0.01 µM | 100% | 100% | 0.063 µM | 2.99 ± 0.15 µM | 0.36 µM | 4 | 4.0 fold | 0.04 to 0.82 µM | 1.4 | 10.8 fold |
